Assay results from patent US20160158377A1, “BCL-XL Inhibitory Compounds and Antibody Drug Conjugates Including the Same” (AbbVie Inc., priority 2014, published 2016).
Like-named read-outs stand apart in the source and are kept apart here.

How the values were obtained:
[1] = test system: Molt-4 human acute lymphoblastic leukemia cells; test: Molt-4 cell viability assay; assay type: cell-based; conditions: 10% human serum, 48 hours, CellTiter-Glo, read-out: Molt-4 Viability EC50 (nM, 10% HS)
Description: In one exemplary set of conditions, Molt-4 (ATCC, Manassas, Va.) human acute lymphoblastic leukemia cells were plated 12,500 cells per well in 384-well tissue culture plates (Corning, Corning, N.Y.) in a total volume of 25 μL tissue culture medium supplemented with 10% human serum (Sigma-Aldrich, St. Louis, Mo.) and treated with a 3-fold serial dilution of the compounds of interest from 10 μM to 0.0005 μM. Each concentration was tested in duplicate at least 3 separate times. The number of viable cells following 48 hours of compound treatment was determined using the CellTiter-Glo® Luminescent Cell Viability Assay according to the manufacturer's recommendations (Promega Corp., Madison, Wis.). Compounds were tested in the presence of 10% HS.

Bcl-xL = Bcl-xL (Homo sapiens, UniProt Q07817); test: TR-FRET Bcl-xL binding assay (competition with probe F-Bak)
Sequence of Bcl-xL (Q07817 whole entry): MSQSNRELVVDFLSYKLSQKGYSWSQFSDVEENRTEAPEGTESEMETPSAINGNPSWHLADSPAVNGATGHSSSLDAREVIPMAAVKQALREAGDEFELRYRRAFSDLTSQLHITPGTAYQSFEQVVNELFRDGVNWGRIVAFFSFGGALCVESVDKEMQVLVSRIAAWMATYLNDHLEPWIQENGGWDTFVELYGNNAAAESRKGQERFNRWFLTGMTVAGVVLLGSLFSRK
Description: For the assay, test compounds were serially diluted in DMSO starting at 50 μM (2× starting concentration; 10% DMSO) and 10 μL transferred into a 384-well plate. 10 μL of a protein/probe/antibody mix was then added to each well at final concentrations listed below:
The samples were then mixed on a shaker for 1 minute and incubated for an additional 2 hours at room temperature. For each assay plate, a probe/antibody and protein/antibody/probe mixture were included as a negative and a positive control, respectively. Fluorescence was measured on the Envision (Perkin Elmer) using a 340/35 nm excitation filter and 520/525 (F-Bak) and 495/510 nm (Tb-labeled anti-his antibody) emission filters. Dissociation constants (Ki) were determined using Wang's equation (Wang, 1995, FEBS Lett. 360:111-114). The TR-FRET assay can be performed in the presence of varying concentrations of human serum (HS) or fetal bovine serum (FBS). Compounds were tested both without HS and in the presence of 1% HS.

[2] = in the presence of 1% human serum (HS), read-out: Bcl-xL Binding Ki (nM, 1% HS)
[3] = without human serum, read-out: Bcl-xL Binding Ki

Molecule CNCCOC12CC3(C)CC(C)(CC(Cn4ncc(-c5ccc(-c6ccc7c(c6)N(C(=O)Nc6nc8ccccc8s6)CCC7)nc5C(=O)O)c4C)(C3)C1)C2 [Compound W3.01, 6-[1-(1,3-benzothiazol-2-ylcarbamoyl)-1,2,3,4-tetrahydroquinolin-7-yl]-3-[1-({3,5-dimethyl-7-[2-(methylamino)ethoxy]tricyclo[3.3.1.1^3,7]dec-1-yl}methyl)-5-methyl-1H-pyrazol-4-yl]pyridine-2-carboxylic acid] has an EC50 [1] of 0.3 nM, a Ki (Bcl-xL; [2]) of 0.009 nM and a Ki (Bcl-xL; [3]) of less than 0.001 nM.
Molecule CNCCOC12CC3(C)CC(C)(CC(Cn4ncc(-c5ccc(-c6ccc7c(c6)N(C(=O)Nc6nc8ccccc8s6)CCO7)nc5C(=O)O)c4C)(C3)C1)C2 [Compound W3.02] has an EC50 [1] of 0.5 nM, a Ki (Bcl-xL; [2]) of 0.047 nM and a Ki (Bcl-xL; [3]) of less than 0.001 nM.
In the case of CNCCOC12CC3(C)CC(C)(CC(Cn4ncc(-c5ccc(-c6ccc7c(c6)N(C(=O)Nc6nc8ccccc8s6)CCN7C)nc5C(=O)O)c4C)(C3)C1)C2 [Compound W3.03, 6-[4-(1,3-benzothiazol-2-ylcarbamoyl)-1-methyl-1,2,3,4-tetrahydroquinoxalin-6-yl]-3-[1-({3,5-dimethyl-7-[2-(methylamino)ethoxy]tricyclo[3.3.1.1^3,7]dec-1-yl}methyl)-5-methyl-1H-pyrazol-4-yl]pyridine-2-carboxylic acid], the EC50 [1] is reported as 1.4 nM, the Ki (Bcl-xL; [2]) is reported as 0.019 nM and the Ki (Bcl-xL; [3]) is reported as less than 0.001 nM.
Cc1c(-c2ccc(N3CCn4cnc(C(=O)Nc5nc6ccccc6s5)c4C3)nc2C(=O)O)cnn1CC12CC3(C)CC(C)(C1)CC(OCCN)(C3)C2 [Compound W3.04, 3-(1-{[3-(2-aminoethoxy)-5,7-dimethyltricyclo[3.3.1.1^3,7]dec-1-yl]methyl}-5-methyl-1H-pyrazol-4-yl)-6-[1-(1,3-benzothiazol-2-ylcarbamoyl)-5,6-dihydroimidazo[1,5-a]pyrazin-7(8H)-yl]pyridine-2-carboxylic acid] was tested, and the EC50 [1] was 58.9 nM, the Ki (Bcl-xL; [2]) was 0.049 nM and the Ki (Bcl-xL; [3]) was less than 0.001 nM.
In the case of Cc1c(-c2ccc(N3CCc4c(O)ccc(C(=O)Nc5nc6ccccc6s5)c4C3)nc2C(=O)O)cnn1CC12CC3(C)CC(C)(C1)CC(OCCN)(C3)C2 [Compound W3.05, 3-(1-{[3-(2-aminoethoxy)-5,7-dimethyltricyclo[3.3.1.1^3,7]dec-1-yl]methyl}-5-methyl-1H-pyrazol-4-yl)-6-[8-(1,3-benzothiazol-2-ylcarbamoyl)-5-hydroxy-3,4-dihydroisoquinolin-2(1H)-yl]pyridine-2-carboxylic acid], the EC50 [1] is reported as 79 nM, the Ki (Bcl-xL; [2]) is reported as 0.23 nM and the Ki (Bcl-xL; [3]) is reported as 0.02 nM.
With CNCCOC12CC3(C)CC(C)(CC(Cn4ncc(-c5ccc(-c6ccc7cccc(C(=O)Nc8nc9ccccc9s8)c7c6)nc5C(=O)O)c4C)(C3)C1)C2 [Compound W3.06, 6-[8-(1,3-benzothiazol-2-ylcarbamoyl)naphthalen-2-yl]-3-[1-({3,5-dimethyl-7-[2-(methylamino)ethoxy]tricyclo[3.3.1.1^3,7]dec-1-yl}methyl)-5-methyl-1H-pyrazol-4-yl]pyridine-2-carboxylic acid] the EC50 [1] was 3.8 nM, the Ki (Bcl-xL; [2]) was 0.22 nM and the Ki (Bcl-xL; [3]) was less than 0.001 nM.
With CNCCOC12CC3(C)CC(C)(CC(Cn4ncc(-c5ccc(-c6cnc7cccc(C(=O)Nc8nc9ccccc9s8)c7c6)nc5C(=O)O)c4C)(C3)C1)C2 [Compound W3.10, 6-[5-(1,3-benzothiazol-2-ylcarbamoyl)quinolin-3-yl]-3-[1-({3,5-dimethyl-7-[2-(methylamino)ethoxy]tricyclo[3.3.1.1^3,7]dec-1-yl}methyl)-5-methyl-1H-pyrazol-4-yl]pyridine-2-carboxylic acid] the Ki (Bcl-xL; [2]) was 0.0259 nM and the Ki (Bcl-xL; [3]) was less than 0.001 nM.
For COCCOC12CC3(C)CC(C)(CC(Cn4ncc(-c5ccc(N6CCc7cc(N8CCC(N)C8)cc(C(=O)Nc8nc9ccccc9s8)c7C6)nc5C(=O)O)c4C)(C3)C1)C2 (stereo not drawn) [Compound W3.17, 6-[6-(3-aminopyrrolidin-1-yl)-8-(1,3-benzothiazol-2-ylcarbamoyl)-3,4-dihydroisoquinolin-2(1H)-yl]-3-(1-{[3-(2-methoxyethoxy)-5,7-dimethyltricyclo[3.3.1.1^3,7]dec-1-yl]methyl}-5-methyl-1H-pyrazol-4-yl)pyridine-2-carboxylic acid], the Ki (Bcl-xL; [2]) was 2.3 nM and the Ki (Bcl-xL; [3]) was 0.49 nM.
Work on CNCCN(C)c1cc2c(c(C(=O)Nc3nc4ccccc4s3)c1)CN(c1ccc(-c3cnn(CC45CC6(C)CC(C)(C4)CC(OCCOC)(C6)C5)c3C)c(C(=O)O)n1)CC2 [Compound W3.21, 6-[8-(1,3-benzothiazol-2-ylcarbamoyl)-6-{methyl[2-(methylamino)ethyl]amino}-3,4-dihydroisoquinolin-2(1H)-yl]-3-(1-{[3-(2-methoxyethoxy)-5,7-dimethyltricyclo[3.3.1.1^3,7]dec-1-yl]methyl}-5-methyl-1H-pyrazol-4-yl)pyridine-2-carboxylic acid] yielded a Ki (Bcl-xL; [2]) of 0.14 nM and a Ki (Bcl-xL; [3]) of 0.014 nM.
For CNCCOC12CC3(C)CC(C)(CC(Cn4ncc(-c5ccc(N6CCc7cc(OC)cc(C(=O)Nc8nc9ccccc9s8)c7C6)nc5C(=O)O)c4C)(C3)C1)C2 [Compound W3.22, 6-[8-(1,3-benzothiazol-2-ylcarbamoyl)-6-methoxy-3,4-dihydroisoquinolin-2(1H)-yl]-3-[1-({3,5-dimethyl-7-[2-(methylamino)ethoxy]tricyclo[3.3.1.1^3,7]dec-1-yl}methyl)-5-methyl-1H-pyrazol-4-yl]pyridine-2-carboxylic acid], the Ki (Bcl-xL; [2]) was 0.108 nM and the Ki (Bcl-xL; [3]) was less than 0.01 nM.
Cc1c(-c2ccc(-c3ccc4nccc(C(=O)Nc5nc6ccccc6s5)c4c3)nc2C(=O)O)cnn1CC12CC3(C)CC(C)(C1)CC(OCCN)(C3)C2 [Compound W3.23, 3-(1-{[3-(2-aminoethoxy)-5,7-dimethyltricyclo[3.3.1.1^3,7]dec-1-yl]methyl}-5-methyl-1H-pyrazol-4-yl)-6-[4-(1,3-benzothiazol-2-ylcarbamoyl)quinolin-6-yl]pyridine-2-carboxylic acid] showed a Ki (Bcl-xL; [2]) of 1.1 nM and a Ki (Bcl-xL; [3]) of 0.021 nM.
Cc1c(-c2ccc(N3CCc4cccc(C(=O)Nc5nc6ccccc6s5)c4C3)nc2C(=O)O)cnn1CC12CC3(C)CC(C)(C1)CC(OCCNCCS(=O)(=O)N(C)C)(C3)C2 [Compound W3.36, 6-(8-(benzo[d]thiazol-2-ylcarbamoyl)-3,4-dihydroisoquinolin-2(1H)-yl)-3-(1-((3-(2-((2-(N,N-dimethylsulfamoyl)ethyl)amino)ethoxy)-5,7-dimethyladamantan-1-yl)methyl)-5-methyl-1H-pyrazol-4-yl)picolinic acid] was tested, and the EC50 [1] was 6.9 nM.
With Cc1c(-c2ccc(N3CCc4cccc(C(=O)Nc5nc6ccccc6s5)c4C3)nc2C(=O)O)cnn1CC12CC3(C)CC(C)(C1)CC(OCCNCCC(=O)N(C)C)(C3)C2 [Compound W3.38, 6-[8-(1,3-benzothiazol-2-ylcarbamoyl)-3,4-dihydroisoquinolin-2(1H)-yl]-3-(1-{[3-(2-{[3-(dimethylamino)-3-oxopropyl]amino}ethoxy)-5,7-dimethyltricyclo[3.3.1.1^3,7]dec-1-yl]methyl}-5-methyl-1H-pyrazol-4-yl)pyridine-2-carboxylic acid] the EC50 [1] was 10.7 nM.
In the case of Cc1c(-c2ccc(N3CCc4cccc(C(=O)Nc5nc6ccccc6s5)c4C3)nc2C(=O)O)cnn1CC12CC3(C)CC(C)(C1)CC(NC(=O)CN)(C3)C2 [Compound W3.40, 3-(1-{[3-(2-aminoacetamido)-5,7-dimethyltricyclo[3.3.1.1^3,7]decan-1-yl]methyl}-5-methyl-1H-pyrazol-4-yl)-6-{8-[(1,3-benzothiazol-2-yl)carbamoyl]-3,4-dihydroisoquinolin-2(1H)-yl}pyridine-2-carboxylic acid], the Ki (Bcl-xL; [2]) is reported as 1.1 nM and the Ki (Bcl-xL; [3]) is reported as 0.024 nM.
Work on Cc1c(-c2ccc(N3CCc4cccc(C(=O)Nc5nc6ccccc6s5)c4C3)nc2C(=O)O)cnn1CC12CC3(C)CC(C)(CC(CCCN)(C3)C1)C2 [Compound W3.42, 3-(1-{[3-(3-aminopropyl)-5,7-dimethyltricyclo[3.3.1.1^3,7]dec-1-yl]methyl}-5-methyl-1H-pyrazol-4-yl)-6-[8-(1,3-benzothiazol-2-ylcarbamoyl)-3,4-dihydroisoquinolin-2(1H)-yl]pyridine-2-carboxylic acid] yielded a Ki (Bcl-xL; [2]) of 4.36 nM and a Ki (Bcl-xL; [3]) of 0.15 nM.
Cc1c(-c2ccc(-c3cnc4cccc(C(=O)Nc5nc6ccccc6s5)c4c3)nc2C(=O)O)cnn1CC12CC3(C)CC(C)(C1)CC(OCCN)(C3)C2 [Compound W3.43, 3-(1-{[3-(2-aminoethoxy)-5,7-dimethyltricyclo[3.3.1.1^3,7]decan-1-yl]methyl}-5-methyl-1H-pyrazol-4-yl)-6-{5-[(1,3-benzothiazol-2-yl)carbamoyl]quinolin-3-yl}pyridine-2-carboxylic acid] gave a Ki (Bcl-xL; [2]) of 0.07 nM and a Ki (Bcl-xL; [3]) of less than 0.01 nM.
